Measured values: ChEMBL document CHEMBL1157533 (J Med Chem, 2008)

Assays:
[1] = molecular target: Beta-1 adrenergic receptor (Homo sapiens, UniProt P08588); test: Agonist activity at human recombinant beta-1 adrenergic receptor expressed in CHO cells assessed as cAMP accumulation by enzyme immuno assay; format: functional, cell-based
[2] = molecular target: Beta-3 adrenergic receptor (Homo sapiens, UniProt P13945); test: Agonist activity at human recombinant beta3 adrenergic receptor expressed in CHO cells assessed as cAMP accumulation by enzyme immuno assay; format: functional, cell-based
Chain of Beta-3 adrenergic receptor (Homo sapiens, UniProt P13945) (P13945 whole entry): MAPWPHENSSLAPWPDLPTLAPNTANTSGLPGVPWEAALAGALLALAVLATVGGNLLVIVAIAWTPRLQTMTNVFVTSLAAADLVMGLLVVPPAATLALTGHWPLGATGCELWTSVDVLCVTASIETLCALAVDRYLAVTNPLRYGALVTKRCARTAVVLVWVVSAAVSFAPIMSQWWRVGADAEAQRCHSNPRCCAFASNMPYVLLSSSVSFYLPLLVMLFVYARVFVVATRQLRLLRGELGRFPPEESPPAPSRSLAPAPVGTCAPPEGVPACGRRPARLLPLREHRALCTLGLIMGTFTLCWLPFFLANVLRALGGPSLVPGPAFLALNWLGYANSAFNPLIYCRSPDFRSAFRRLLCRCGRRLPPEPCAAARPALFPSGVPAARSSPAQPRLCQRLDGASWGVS

[3] = molecular target: Beta-2 adrenergic receptor (Homo sapiens, UniProt P07550); test: Agonist activity at human recombinant beta2 adrenergic receptor expressed in CHO cells assessed as cAMP accumulation by enzyme immuno assay; format: functional, cell-based
Chain of Beta-2 adrenergic receptor (P07550 whole entry): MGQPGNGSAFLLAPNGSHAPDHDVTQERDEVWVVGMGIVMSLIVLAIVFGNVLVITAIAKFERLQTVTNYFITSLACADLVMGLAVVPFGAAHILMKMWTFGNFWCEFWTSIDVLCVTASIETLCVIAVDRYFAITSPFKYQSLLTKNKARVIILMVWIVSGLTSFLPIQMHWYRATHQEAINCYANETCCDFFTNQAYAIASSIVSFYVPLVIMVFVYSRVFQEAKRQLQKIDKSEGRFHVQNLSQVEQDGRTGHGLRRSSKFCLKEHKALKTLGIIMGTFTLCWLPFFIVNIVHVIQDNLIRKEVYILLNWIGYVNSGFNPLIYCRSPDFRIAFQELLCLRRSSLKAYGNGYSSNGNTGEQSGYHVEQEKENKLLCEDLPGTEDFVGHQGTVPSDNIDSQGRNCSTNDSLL

[4] = AUC (0 to 2 hrs) in Beagle dog at 0.1 mg/kg, po by cassette assay; format: ADME, organism-based, Canis lupus familiaris; set-up: time < 2 hr, dose 0.1 mg/kg, route oral; conditions: plasma
[5] = Terminal half life in Beagle dog at 0.1 mg/kg, iv by cassette assay; format: ADME, organism-based, Canis lupus familiaris; set-up: dose 0.1 mg/kg, route intravenous; conditions: in vivo, read-out: beta t1/2 (converted)
[6] = Volume of distribution at steady state in Beagle dog at 0.1 mg/kg, iv by cassette assay; format: ADME, organism-based, Canis lupus familiaris; set-up: dose 0.1 mg/kg, route intravenous; conditions: in vivo, read-out: Vdss
[7] = AUC (0 to 24 hrs) in Beagle dog at 0.1 mg/kg, iv by cassette assay; format: ADME, organism-based, Canis lupus familiaris; set-up: time < 24 hr, dose 0.1 mg/kg, route intravenous; conditions: plasma
[8] = Total clearance in Beagle dog at 0.1 mg/kg, iv by cassette assay; format: ADME, organism-based, Canis lupus familiaris; set-up: dose 0.1 mg/kg, route intravenous; conditions: in vivo
[9] = Bioavailability in Beagle dog at 0.1 mg/kg, po by cassette assay; format: ADME, organism-based, Canis lupus familiaris; conditions: in vivo
[10] = Metabolic stability assessed as intrinsic clearance in dog liver microsome in presence of NADPH-generating system; format: ADME, Canis lupus familiaris; conditions: liver microsomes
[11] = Metabolic stability assessed as intrinsic clearance in rat liver microsome in presence of NADPH-generating system; format: ADME; conditions: liver microsomes
[12] = Metabolic stability assessed as intrinsic clearance in monkey liver microsome in presence of NADPH-generating system; format: ADME, Macaca mulatta; conditions: rhesus monkey, liver microsomes
[13] = Metabolic stability assessed as intrinsic clearance in human liver microsome in presence of NADPH-generating system; format: ADME; conditions: liver microsomes
[14] = AUC (0 to 24 hrs) in monkey at 0.32 mg/kg, po by cassette assay; format: ADME, organism-based, Macaca mulatta; set-up: time < 24 hr, dose 0.32 mg/kg, route oral; conditions: rhesus monkey, plasma
[15] = Bioavailability in monkey at 0.32 mg/kg, po by cassette assay; format: ADME, organism-based, Macaca mulatta; conditions: rhesus monkey, in vivo
[16] = Total clearance in monkey at 0.32 mg/kg, iv by cassette assay; format: ADME, organism-based, Macaca mulatta; set-up: dose 0.32 mg/kg, route intravenous; conditions: rhesus monkey, in vivo
[17] = Cmax in rat at 1.0 mg/kg, po by cassette assay; format: ADME, organism-based; set-up: dose 1 mg/kg, route oral; conditions: in vivo
[18] = AUC (0 to 24 hrs) in rat at 1.0 mg/kg, po by cassette assay; format: ADME, organism-based; set-up: time < 24 hr, dose 1 mg/kg, route oral; conditions: plasma
[19] = Bioavailability in rat at 1.0 mg/kg, po by cassette assay; format: ADME, organism-based; conditions: in vivo
[20] = Cmax in dog at 0.1 mg/kg, po; format: ADME, organism-based, Canis lupus familiaris; set-up: dose 0.1 mg/kg, route oral; conditions: in vivo
[21] = Total clearance in rat at 1.0 mg/kg, iv by cassette assay; format: ADME, organism-based; set-up: dose 1 mg/kg, route intravenous; conditions: in vivo
[22] = Bioavailability in dog at 0.1 mg/kg, po; format: ADME, organism-based, Canis lupus familiaris; conditions: in vivo
[23] = Terminal half life in dog at 0.1 mg/kg, iv; format: ADME, organism-based, Canis lupus familiaris; set-up: dose 0.1 mg/kg, route intravenous; conditions: in vivo, read-out: beta t1/2 (converted)
[24] = Total clearance in dog at 0.1 mg/kg, iv; format: ADME, organism-based, Canis lupus familiaris; set-up: dose 0.1 mg/kg, route intravenous; conditions: in vivo
[25] = molecular target: Beta-3 adrenergic receptor (Canis lupus familiaris, UniProt O02662); test: Agonist activity at dog recombinant beta3 adrenergic receptor expressed in CHO cells assessed as cAMP accumulation by enzyme immuno assay; format: functional, cell-based
Chain of Beta-3 adrenergic receptor (Canis lupus familiaris, UniProt O02662) (O02662 whole entry): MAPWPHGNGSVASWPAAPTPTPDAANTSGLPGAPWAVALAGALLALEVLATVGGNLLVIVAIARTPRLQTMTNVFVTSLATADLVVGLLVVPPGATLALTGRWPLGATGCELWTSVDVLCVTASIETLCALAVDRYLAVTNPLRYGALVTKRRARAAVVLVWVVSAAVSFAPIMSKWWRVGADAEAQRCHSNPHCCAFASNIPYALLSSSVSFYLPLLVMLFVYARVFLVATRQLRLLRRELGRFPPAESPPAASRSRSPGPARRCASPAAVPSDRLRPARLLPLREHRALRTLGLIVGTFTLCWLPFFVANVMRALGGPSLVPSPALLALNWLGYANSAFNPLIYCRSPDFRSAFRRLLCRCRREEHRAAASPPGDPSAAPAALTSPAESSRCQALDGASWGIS

[26] = Protein binding in Beagle dog serum; format: ADME, cell-free, Canis lupus familiaris; conditions: read-out: PPB (converted)
[27] = AUC (0 to 24 hrs) in dog at 0.1 mg/kg, po; format: ADME, organism-based, Canis lupus familiaris; set-up: time < 24 hr, dose 0.1 mg/kg, route oral; conditions: plasma
Canis familiaris = species on record: Canis familiaris; test: cells; conditions: Canis lupus familiaris, 3 h
Description: Inhibition of carbachol-induced increase in intravesical pressure in intraduodenally dosed Beagle dog OAB model for 180 mins

[28] = Cmax in dog at 0.32 mg/kg, po; format: ADME, organism-based, Canis lupus familiaris; set-up: dose 0.32 mg/kg, route oral; conditions: in vivo
[29] = AUC (0 to 24 hrs) in dog at 0.32 mg/kg, po; format: ADME, organism-based, Canis lupus familiaris; set-up: time < 24 hr, dose 0.32 mg/kg, route oral; conditions: plasma
[30] = Bioavailability in dog at 0.32 mg/kg, po; format: ADME, organism-based, Canis lupus familiaris; conditions: in vivo
[31] = Total clearance in dog at 0.32 mg/kg, iv; format: ADME, organism-based, Canis lupus familiaris; set-up: dose 0.32 mg/kg, route intravenous; conditions: in vivo
[32] = Cmax in rat at 0.26 mg/kg, po by cassette assay; format: ADME, organism-based; set-up: dose 0.26 mg/kg, route oral; conditions: in vivo
[33] = Cmax in monkey at 0.28 mg/kg, po by cassette assay; format: ADME, organism-based, Macaca mulatta; set-up: dose 0.28 mg/kg, route oral; conditions: rhesus monkey, in vivo
[34] = AUC (0 to 24 hrs) in rat at 0.26 mg/kg, po by cassette assay; format: ADME, organism-based; set-up: time < 24 hr, dose 0.26 mg/kg, route oral; conditions: plasma
[35] = AUC (0 to 24 hrs) in monkey at 0.28 mg/kg, po by cassette assay; format: ADME, organism-based, Macaca mulatta; set-up: time < 24 hr, dose 0.28 mg/kg, route oral; conditions: rhesus monkey, plasma
[36] = Bioavailability in rat at 0.26 mg/kg, po by cassette assay; format: ADME, organism-based; conditions: in vivo
[37] = Bioavailability in monkey at 0.28 mg/kg, po by cassette assay; format: ADME, organism-based, Macaca mulatta; conditions: rhesus monkey, in vivo
[38] = Terminal half life in rat plasma at 0.26 mg/kg, iv by cassette assay; format: ADME, organism-based; set-up: dose 0.26 mg/kg, route intravenous; conditions: read-out: beta t1/2 (converted)
[39] = Terminal half life in monkey plasma at 0.28 mg/kg, iv by cassette assay; format: ADME, organism-based, Macaca mulatta; set-up: dose 0.28 mg/kg, route intravenous; conditions: rhesus monkey, read-out: beta t1/2 (converted)
[40] = Total clearance in rat at 0.26 mg/kg, iv by cassette assay; format: ADME, organism-based; set-up: dose 0.26 mg/kg, route intravenous; conditions: in vivo
[41] = Total clearance in monkey at 0.28 mg/kg, iv by cassette assay; format: ADME, organism-based, Macaca mulatta; set-up: dose 0.28 mg/kg, route intravenous; conditions: rhesus monkey, in vivo
[42] = Cmax in monkey at 0.30 mg/kg, po by cassette assay; format: ADME, organism-based, Macaca mulatta; set-up: dose 0.3 mg/kg, route oral; conditions: rhesus monkey, in vivo, 0.3 mg/kg
[43] = AUC (0 to 24 hrs) in monkey at 0.30 mg/kg, po by cassette assay; format: ADME, organism-based, Macaca mulatta; set-up: time < 24 hr, dose 0.3 mg/kg, route oral; conditions: rhesus monkey, plasma, 0.3 mg/kg
[44] = Bioavailability in monkey at 0.30 mg/kg, po by cassette assay; format: ADME, organism-based, Macaca mulatta; conditions: rhesus monkey, in vivo, 0.3 mg/kg
[45] = Total clearance in monkey at 0.30 mg/kg, iv by cassette assay; format: ADME, organism-based, Macaca mulatta; set-up: dose 0.3 mg/kg, route intravenous; conditions: rhesus monkey, in vivo, 0.3 mg/kg

Chain of Beta-1 adrenergic receptor (P08588 whole entry): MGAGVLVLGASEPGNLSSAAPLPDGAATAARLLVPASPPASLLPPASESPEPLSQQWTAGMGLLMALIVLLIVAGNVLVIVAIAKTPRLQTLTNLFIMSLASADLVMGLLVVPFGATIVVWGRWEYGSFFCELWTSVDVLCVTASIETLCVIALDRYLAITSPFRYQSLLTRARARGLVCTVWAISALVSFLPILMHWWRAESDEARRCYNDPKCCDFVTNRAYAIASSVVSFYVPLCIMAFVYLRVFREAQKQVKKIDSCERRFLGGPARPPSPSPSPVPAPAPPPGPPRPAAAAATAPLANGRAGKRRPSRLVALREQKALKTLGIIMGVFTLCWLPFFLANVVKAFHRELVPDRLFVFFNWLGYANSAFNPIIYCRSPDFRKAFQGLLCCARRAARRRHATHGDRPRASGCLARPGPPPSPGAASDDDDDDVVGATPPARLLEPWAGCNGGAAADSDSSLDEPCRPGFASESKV

## CC(C)Oc1cc(-c2ccc(C[C@@H](C)NC[C@H](O)c3ccccc3)cc2)ccc1C(=O)O
[1]
  EC50: 86 nM
[2]
  EC50: 0.091 nM
[3]
  EC50: > 10000 nM
[4]
  AUC(0-t) at 2 h: 0.106 µg·h/mL
[5]
  half-life: 15.5 h
[6]
  Vd: 5.4 L/kg
[7]
  AUC(0-t) at 24 h: 0.26 µg·h/mL
[8]
  clearance: 0.39 L/h/kg
[9]
  bioavailability: 41%
[10]
  CLint scaled: < 0.006 L/h/kg
[11]
  CLint scaled: < 0.006 L/h/kg
[12]
  CLint scaled: < 0.06 L/h/kg
[13]
  CLint scaled: < 0.006 L/h/kg
[14]
  AUC(0-t) at 24 h: 1.3 µg·h/mL
[15]
  bioavailability: 52.8%
[16]
  clearance: 0.108 L/h/kg
[17]
  Cmax: 0.117 µg/mL
[18]
  AUC(0-t) at 24 h: 1.64 µg·h/mL
[19]
  bioavailability: 69.7%
[20]
  Cmax: 0.0085 µg/mL
[21]
  clearance: 0.432 L/h/kg
[22]
  bioavailability: 79.6%
[23]
  half-life: 14.3 h
[24]
  clearance: 0.47 L/h/kg
[25]
  EC50: 0.19 nM
[26]
  fraction unbound: 0.14
[27]
  AUC(0-t) at 24 h: 0.162 µg·h/mL
Canis familiaris
  EC50: 2.5 nM
  ED50: 3.5 µg/kg

## O=C(O)c1ccc(-c2ccc(CCNC[C@H](O)c3cccnc3)cc2)cc1OC1CCCCC1
[1]
  EC50: 480 nM
[2]
  EC50: 0.26 nM
[3]
  EC50: > 10000 nM
[28]
  Cmax: 0.0114 µg/mL
[29]
  AUC(0-t) at 24 h: 0.0581 µg·h/mL
[30]
  bioavailability: 60%
[31]
  clearance: 2.86 L/h/kg
[32]
  Cmax: 0.0724 µg/mL
[33]
  Cmax: 0.0186 µg/mL
[34]
  AUC(0-t) at 24 h: 0.245 µg·h/mL
[35]
  AUC(0-t) at 24 h: 0.153 µg·h/mL
[36]
  bioavailability: 82.5%
[37]
  bioavailability: 10.7%
[38]
  half-life: 3.3 h
[39]
  half-life: 10.3 h
[40]
  clearance: 0.948 L/h/kg
[41]
  clearance: 0.204 L/h/kg
[25]
  EC50: 1.3 nM
[26]
  fraction unbound: 0.1

## CCCOc1cc(-c2ccc(C[C@@H](C)NC[C@H](O)c3cccnc3)cc2)ccc1C(=O)O
[1]
  EC50: 190 nM
[2]
  EC50: 0.064 nM
[3]
  EC50: > 1000 nM
[20]
  Cmax: 0.003 µg/mL
[22]
  bioavailability: 54.9%
[24]
  clearance: 1.46 L/h/kg
[42]
  Cmax: 0.0082 µg/mL
[43]
  AUC(0-t) at 24 h: 0.0652 µg·h/mL
[44]
  bioavailability: 57.2%
[45]
  clearance: 2.82 L/h/kg
[25]
  EC50: 0.51 nM
[26]
  fraction unbound: 0.18
[27]
  AUC(0-t) at 24 h: 0.0355 µg·h/mL
Canis familiaris
  EC50: 0.28 nM
  ED50: 4.8 µg/kg
